Laboratory results: PubChem BioAssay (NCI)
Where “and” joins values, the source holds several entries; their conditions need not be identical. Identical values can stand only once.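 Cells were grown in 96-well plates and exposed to each compound for 48 hours at five concentrations; endpoints were interpolated linearly between bracketing concentrations, or set to the highest concentration if not reached. GI50: concentration for 50% inhibition of growth. TGI denotes the concentration required for complete inhibition of growth.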

Experiments:
Assay in all cases: NCI-60 cell line screen, 48 h
[1] = system: LOX IMVI melanoma
[2] = system: MALME-3M melanoma
[3] = system: RPMI-8226 leukemia
[4] = system: T-47D breast
[5] = system: CCRF-CEM leukemia
[6] = system: SF-268 CNS
[7] = system: KM12 colon
[8] = system: NCI/ADR-RES ovarian
[9] = system: IGROV1 ovarian
[10] = system: SNB-19 CNS

FC(F)(F)c1cccc(-c2nc3ccccc3c3c2[C@@]2(N4CCCC4)CCCC[C@@H]32)c1
TGI [1]: 38.6 µM
TGI [2]: > 100 µM
TGI [3]: 41.4 µM
TGI [4]: > 100 µM
TGI [5]: 87.9 µM
TGI [6]: > 100 µM
TGI [7]: > 100 µM
TGI [8]: > 100 µM
TGI [9]: 37.4 µM
TGI [10]: > 100 µM

CCOP(=O)(OCC)C(C#N)Cc1ccco1 (stereo not given)
TGI [1]: > 10 µM
TGI [2]: > 10 µM
TGI [3]: > 10 µM
TGI [4]: > 10 µM
TGI [5]: > 10 µM
TGI [6]: > 10 µM
TGI [7]: > 10 µM
TGI [8]: > 10 µM
TGI [9]: > 10 µM
TGI [10]: > 10 µM

O=C1OC(=O)c2cc(S(=O)(=O)c3ccc4c(c3)C(=O)OC4=O)ccc21
TGI [1]: > 100 µM
TGI [2]: > 100 µM
TGI [3]: > 100 µM
TGI [4]: > 100 µM
TGI [5]: > 100 µM
TGI [6]: > 100 µM
TGI [7]: > 100 µM
TGI [8]: > 100 µM
TGI [9]: > 100 µM
TGI [10]: > 100 µM

COc1cc2c(cc1OC)C1(COc3cc(O)c(O)c(O)c3C1=O)C2 (stereo not given)
TGI [1]: > 50 µM
TGI [2]: > 50 µM
TGI [3]: > 50 µM
TGI [4]: > 50 µM
TGI [5]: > 50 µM
TGI [6]: > 50 µM
TGI [7]: > 50 µM
TGI [8]: > 50 µM
TGI [9]: > 50 µM
TGI [10]: > 50 µM

CCOC(=O)C(Cc1cccn1C(=O)OC(C)(C)C)[N+](=O)[O-] (stereo not given)
TGI [1]: 32.1 µM
TGI [2]: 75.4 µM
TGI [3]: 45.1 µM
TGI [4]: > 100 µM
TGI [5]: 35.4 µM
TGI [6]: > 100 µM
TGI [7]: 55.5 µM
TGI [8]: > 100 µM
TGI [9]: 43.3 µM
TGI [10]: 75.5 µM

O=C1c2cc(Cl)ccc2NC(=NCCCl)C2CSCN12 (stereo not given)
TGI [1]: > 100 µM
TGI [2]: > 100 µM
TGI [3]: > 100 µM
TGI [4]: > 100 µM
TGI [5]: > 100 µM
TGI [6]: > 100 µM
TGI [7]: > 100 µM
TGI [8]: > 100 µM
TGI [9]: > 100 µM
TGI [10]: > 100 µM

CC1OC(OC2C(OC(=O)[C@]34CCC(C)(C)C[C@H]3C3=CC[C@@H]5[C@@]6(C)CC[C@H](OC7OC(C(=O)O)C(O)C(OC8OCC(O)C(O)C8O)C7O)C(C)(C)[C@@H]6CC[C@@]5(C)[C@]3(C)CC4)OCC(O)C2O)C(O)C(OC2OCC(O)C(O)C2O)C1OC1OCC(O)C(OC2OCC(O)C(O)C2O)C1O (stereo not given in full)
TGI [1]: 26.3 µM and 35.5 µM
GI50 [2]: 10.6 µM and 28.6 µM
TGI [2]: 25.7 µM and 91 µM
GI50 [3]: 5.62 µM and 16.9 µM
TGI [3]: 19.8 µM and 35.3 µM
GI50 [4]: 9.59 µM and 38.3 µM
TGI [4]: 51.8 µM and > 100 µM
TGI [5]: 32.1 µM and 31.4 µM
TGI [6]: 25.5 µM and 54.7 µM
GI50 [7]: 4.39 µM and 11.3 µM
TGI [7]: 15.8 µM and 23.7 µM
TGI [8]: 24.4 µM and 67.7 µM
GI50 [9]: 11.8 µM and 30.9 µM
TGI [9]: 32.6 µM and > 100 µM
TGI [10]: 23.2 µM and 44.2 µM

CC(=O)OC1COC(Nc2nc(NCc3ccccc3)n(C)c(=O)c2N=O)C(OC(C)=O)C1OC(C)=O (stereo not given)
TGI [1]: > 10 µM
TGI [2]: > 10 µM
TGI [3]: > 10 µM
TGI [4]: > 10 µM
TGI [5]: > 10 µM
TGI [6]: > 10 µM
TGI [7]: > 10 µM
TGI [8]: > 10 µM
TGI [9]: > 10 µM
TGI [10]: > 10 µM

COc1c(O)cc2c(c1O)C(=O)/C(=C/c1ccc(O)cc1)CO2
TGI [1]: 53.1 µM
TGI [2]: 96.4 µM
TGI [3]: 37.2 µM
TGI [4]: 94.8 µM
TGI [5]: 65.3 µM
TGI [6]: > 100 µM
TGI [7]: 34.4 µM
TGI [8]: 57 µM
TGI [9]: 80.8 µM
TGI [10]: > 100 µM

c1c[nH]c(C23C4C5C6C4C2C6C53)n1 (stereo not given)
TGI [1]: > 100 µM
TGI [2]: > 100 µM
TGI [3]: > 100 µM
TGI [4]: > 100 µM
TGI [5]: > 100 µM
TGI [6]: > 100 µM
TGI [7]: > 100 µM
TGI [8]: > 100 µM
TGI [9]: > 100 µM
TGI [10]: > 100 µM

COc1ccc(N2C(=O)C3c4[nH]c5ccc(F)cc5c4C4CCC(c5ccccc5)CC4C3C2=O)cc1 (stereo not given)
TGI [1]: > 100 µM
TGI [2]: 33.3 µM
TGI [3]: > 100 µM
TGI [4]: > 100 µM
TGI [5]: 16.5 µM
TGI [6]: 20.3 µM
TGI [7]: > 100 µM
TGI [8]: > 100 µM
TGI [9]: 56.2 µM
TGI [10]: 27.9 µM

Cc1ccc(/C(O)=C/c2nc3ccccc3s/c2=N/CS(=O)(=O)c2ccc(C)cc2)cc1
TGI [1]: > 10 µM
TGI [2]: > 10 µM
TGI [3]: > 10 µM
TGI [4]: > 10 µM
TGI [5]: > 10 µM
TGI [6]: > 10 µM
TGI [7]: > 10 µM
TGI [8]: > 10 µM
TGI [9]: > 10 µM
TGI [10]: > 10 µM

Oc1ccc(Cl)cc1CN1CCN(Cc2cc(Cl)ccc2O)C1
TGI [1]: 4.07 µM
TGI [2]: 8.29 µM
TGI [3]: 15.3 µM
TGI [4]: 10.9 µM
TGI [5]: > 100 µM
TGI [6]: 12.8 µM
TGI [7]: 3.49 µM
TGI [8]: 1.1 µM
TGI [9]: 6.47 µM
TGI [10]: 12.2 µM

CN(c1ccccc1Cl)S(=O)(=O)c1ccc([N+](=O)[O-])cc1
TGI [1]: > 100 µM
TGI [2]: > 100 µM
TGI [3]: > 100 µM
TGI [4]: > 100 µM
TGI [5]: > 100 µM
TGI [6]: > 100 µM
TGI [7]: > 100 µM
TGI [8]: > 100 µM
TGI [9]: > 100 µM
TGI [10]: > 100 µM

O=C(Nc1ccc(-n2ccc3c(NC(=O)c4ccccc4)ncnc32)cc1)Nc1cccc(Cl)c1Cl
GI50 [1]: 0.763 µM
TGI [1]: 2.04 µM
GI50 [2]: 1.04 µM
TGI [2]: 4.13 µM
GI50 [3]: 0.646 µM
TGI [3]: 2.76 µM
GI50 [4]: 2.17 µM
TGI [4]: 9.22 µM
GI50 [5]: 0.531 µM
TGI [5]: 3.21 µM
GI50 [6]: 1.1 µM
TGI [6]: 3.13 µM
GI50 [7]: 1.15 µM
TGI [7]: 6.57 µM
GI50 [8]: 1.58 µM
TGI [8]: 7.29 µM
GI50 [9]: 1.06 µM
TGI [9]: 3.39 µM
GI50 [10]: 1.44 µM
TGI [10]: 5.84 µM

Cc1cn([C@@H]2O[C@H](CO[Si](C)(C)C(C)(C)C)[C@]3(O[C@H]3C(=O)NN)[C@H]2O[Si](C)(C)C(C)(C)C)c(=O)[nH]c1=O
TGI [1]: 10.7 µM
TGI [2]: 11.8 µM
TGI [3]: 9.19 µM
TGI [4]: 6.32 µM
TGI [5]: 5.43 µM
TGI [6]: 12 µM
TGI [7]: 32.6 µM
TGI [8]: 33 µM
TGI [9]: 18.6 µM
TGI [10]: 21.7 µM

NC1=CN2c3ccccc3N(CC(=O)O)C2C=C1 (stereo not given)
TGI [1]: > 100 µM
TGI [2]: > 100 µM
TGI [3]: > 100 µM
TGI [4]: > 100 µM
TGI [5]: > 100 µM
TGI [6]: > 100 µM
TGI [7]: > 100 µM
TGI [8]: > 100 µM
TGI [9]: > 100 µM
TGI [10]: > 100 µM
